Results from patent publication US9187496B2 (priority 2009, dated 2015).
Read-outs that look alike come from different tables or passages of the source.

How the values were obtained:
[1] = tested on: Huh-7 cells containing HCV Con1 subgenomic replicon (GS4.1 cells); assay: HCV replicon assay (NS5A ELISA); format: cell-based; details: Hepatitis C virus, Huh-7; GS4.1 cells, 72 hrs, NS5A ELISA; read-out: EC50
How it was run: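 GS4.1 cells dosed 3 h after seeding with ten 2-fold dilutions from 75 μM, or single 15 μM, in 0.5% DMSO for 72 h at 37° C; NS5A measured by ELISA (A-236 antibody, OPD, A492). EC50 from four-parameter sigmoidal fit of % inhibition.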

[2] = Cytotoxicity evaluation in GS4.1 cells (Cell Titer 96 AQueous One); format: cell-based, human; details: human, cellular viability
Procedure: For cytotoxicity evaluation, GS4.1 cells were treated with compounds as described above and cellular viability was monitored using the Cell Titer 96 AQueous One Solution Cell Proliferation Assay (Promega). CC50 values were determined from the % cytotoxicity versus concentration data with Tecan Magellan software as described above.

[3] = tested on: HCV genotype 1b Conl strain subgenomic luciferase replicon (Zluc); assay: Luciferase replicon assay, genotype 1b; format: cell-based; details: read-out: EC50 1b
Procedure: (§1) The HCV luciferase replicon assay measures the ability of a test compound to inhibit HCV replication in cell culture after 3 days of treatment in a human hepatoma cell line (Huh-7) bearing a HCV replicon containing a luciferase-neomycin phosphotransferase fusion gene. The inhibition of HCV replication was measured by quantification of luciferase protein expression. Briefly, Huh-7 cells containing either the HCV genotype 1a H77 strain or genotype 1b Conl strain subgenomic luciferase replicon (H1a-luc or Zluc, respectively) were grown in DMEM containing glucose, L-glutamine and sodium pyruvate, 10% fetal bovine serum (FBS), 100 IU/mL penicillin, 100 μg/mL streptomycin, 2 mM GlutaMAX, non-essential amino acids and 0.25 (H1a-luc) or 0.5 (Zluc) mg/mL G418. GlutaMAX was obtained from Invitrogen, Corp.; all other media reagents were obtained from Mediatech, Inc. For dose-response testing, the cells were seeded in 96-well plates at 1×10^4 (H1a-luc) or 7.5×10^3 (Zluc) cells/well in a volume of 50 μL, and incubated at 37° C./5% CO2. Three hours after plating, 50 μL of ten 5-fold serial dilutions of compound were added, and cell cultures were incubated at 37° C./5% CO2 for 72 hours. In all cases, Huh-7 cells lacking the HCV replicon served as negative control. To assess luciferase expression, the media/compound was removed from the plates and ONE-glo Luciferase assay reagent (Promega) was added to each well. The assay plates were shaken for 3 minutes at room temperature and luciferase activity for each well was measured with a 1 sec read time on the Victor^3V multilabel counter using a 700 nm cut-off filter (Perkin Elmer). EC50 values were calculated from dose response curves from the resulting best-fit equations determined by Microsoft Excel and XLfit 4.1 software.

[4] = tested on: HCV genotype 2a-specific NS5A gene within the 1b-replicon; assay: Luciferase replicon assay, NS5A-intergenotypic stable cell line genotype 2a; format: cell-based; details: read-out: EC50 2a
Text: (§2) The nucleotide sequences of the NS5A region of genotype 2a (GenBank Accession #AB047639), genotype 3a (GenBank Accession #D17763), and genotype 4a (GenBank Accession#DQ418788) were synthesized by an outside vendor. The NS5A region of each of these genotypes included the first 11 amino acids of the protease recognition sequence of genotype 1b, as well as the last 10 amino acids of genotype 1b. The NS5A gene cassettes were excised with site specific restriction endonucleases and ligated into a ZS11-luciferase genotype 1b backbone (backbone contains the genotype 1b NS3 protease, NS4a, NS4b, and NS5b coding regions) with similarly cut restriction enzyme sites. Thus, the newly constructed plasmid contains a genotype 2a-, 3a- or 4a-specific NS5A gene within the 1b-replicon.
(§3) These new intergenotypic plasmids were used to establish stable cell lines. RNA was generated from the NS5A intergenotypic plasmids and used in conjunction with a lipofectin reagent to transfect a cured Huh7 cell line. Transfected cells were selected for with G418. After selection has occurred the stable cell lines were propagated, tested for luciferase activity, and RT-PCR with genotype specific primers (either 1a, 2a, 3a, or 4a). Stable cell lines containing the intergenotypic replicon were then fully sequenced and analysed for proper expression of NS3, NS5A and NS5B proteins.
(§4) Drug titration analysis was performed using the luciferase replicon assay described herein.
as §1

[5] = tested on: HCV genotype 3a-specific NS5A gene within the 1b-replicon; assay: Luciferase replicon assay, NS5A-intergenotypic stable cell line genotype 3a; format: cell-based; details: read-out: EC50 3a
Text: as §2, §3, §4, §1

[6] = tested on: HCV genotype 4a-specific NS5A gene within the 1b-replicon; assay: Luciferase replicon assay, NS5A-intergenotypic stable cell line genotype 4a; format: cell-based; details: read-out: EC50 4a
Text: as §2, §3, §4, §1

[7] = tested on: HCV genotype 1a H77 strain (H1a-luc replicon / 1a-H77NS5a intergenotypic replicon); assay: Luciferase replicon assay, genotype 1a; format: cell-based; details: Hepatitis C virus, read-out: EC50 1a, genotype 1a
Text: To generate the 1a-H77NS5a intergenotypic plasmid, dual cut sites were inserted into the ZS11-luciferase genotype 1b backbone that would bracket the NS5a region almost in its entirety. Using PCR and 1a-H77 specific primers also containing the corresponding restriction enzyme sites, the NS5a gene was amplified from the 1a-H77 replicon. The ZS11-luciferase genotype 1b backbone and the genotype 1a NS5a PCR products were restriction enzyme digested and then ligated using standard molecular cloning techniques. The newly constructed plasmid contains the genotype 1a-specific NS5a gene where as the backbone remains 1b as described herein.
as §3, §4, §1

[8] = Cytotoxicity evaluation in luciferase replicon cells (Cell Titer 96 AQueous One); format: cell-based, human; details: human; Table 1B, cellular viability
Procedure: (§5) For cytotoxicity evaluation, H1a-luc or Zluc cells were treated with compounds as described above and cellular viability was monitored using the Cell Titer 96 AQueous One Solution Cell Proliferation Assay (Promega). Plates were then read at 490 nm in a Victor^3V 1420 multilabel counter (Perkin Elmer) and CC50 concentrations were determined using Microsoft Excel and XLfit 4.1 software.

[9] = tested on: H1a-luc or Zluc cells; assay: as above; format: cell-based, human; details: Table 1B, cellular viability
Procedure: as §5

SMILES	EC50 [1] [nM]	CC50 [2] [nM]	EC50 ([3]; Hepatitis C virus, 72 h) [nM]	EC50 ([4]; Hepatitis C virus) [nM]	EC50 ([5]; Hepatitis C virus) [nM]	EC50 ([6]; Hepatitis C virus) [nM]	EC50 [7] [nM]	CC50 at 72 h [8] [nM]	EC50 ([3]; genotype 1b, luciferase replicon, 72 hours) [nM]	EC50 ([4]; genotype 2a) [nM]	EC50 ([5]; genotype 3a) [nM]	EC50 ([6]; genotype 4a) [nM]	CC50 [9] [nM]
COC(=O)N[C@@H](C(=O)N1CCCC1c1ncc(-c2cn3cc(-c4ccc(-c5cnc([C@@H]6CCCN6C(=O)[C@H](NC(=O)OC)c6ccccc6)[nH]5)cc4)nc3s2)[nH]1)c1ccccc1 (stereo partly shown) [A60]	< 1	> 75000	–	–	–	–	–	–	–	–	–	–	–
COC(=O)N[C@H](C(=O)N1CCC[C@H]1c1ncc(-c2ccc(-c3csc4c(-c5cnc([C@@H]6CCCN6C(=O)[C@@H](NC(=O)OC)C(C)C)[nH]5)csc34)cc2)[nH]1)C(C)C [Compound A15, [(S)-1-((S)-2-{4-[4-(6-{2-[(S)-1-((S)-2-methoxycarbonylamino-3-methyl-butyryl)-pyrrolidin-2-yl]-3H-imidazol-4-yl}-thieno[3,2-b]thiophen-3-yl)-phenyl]-1H-imidazol-2-yl}-pyrrolidine-1-carbonyl)-2-methyl-propyl]-carbamic acid methyl ester]	< 1	10000 to 75000	< 0.1	< 0.1	0.1 to 1	< 0.1	< 0.1	10000 to 75000	–	–	–	–	–
COC(=O)N[C@H](C(=O)N1CCC[C@H]1c1nc2ccc(-c3csc4c(C#Cc5cnc([C@@H]6CCCN6C(=O)[C@H](NC(=O)OC)c6ccccc6)[nH]5)csc34)cc2[nH]1)C(C)C [Compound A206]	–	–	–	–	–	–	–	–	< 0.1	< 0.1	< 0.1	< 0.1	> 75000
COC(=O)N[C@H](C(=O)N1CCC[C@H]1c1ncc(-c2ccc(-c3csc4c(-c5ccc(-c6cnc([C@@H]7CCCN7C(=O)[C@@H](NC(=O)OC)C(C)C)[nH]6)cc5)csc34)cc2)[nH]1)C(C)C [Compound A86, ((S)-1-((S)-2-(5-{4-[6-{4-{2-[(S)-1-((S)-2-methoxycarbonylamino-3-methyl-butyryl)-pyrrolidin-2-yl]-3H-imidazol-4-yl}-phenyl)-thieno[3,2-b]thiophen-3-yl]-phenyl}-1H-imidazol-2-yl)-pyrrolidine-1-carbonyl]-2-methyl-propyl}-carbamic acid methyl ester]	< 1	10000 to 75000	< 0.1	1 to 10	1 to 10	< 0.1	0.1 to 1	10000 to 75000	–	–	–	–	–
COC(=O)N[C@H](C(=O)N1CCC[C@H]1c1nc2ccc(-c3csc4c(-c5ccc6nc([C@@H]7CCCN7C(=O)[C@H](NC(=O)OC)c7ccccc7)[nH]c6c5)csc34)cc2[nH]1)C(C)C [Compound A208]	–	–	< 0.1	< 0.1	< 0.1	< 0.1	< 0.1	> 75000	–	–	–	–	–
COC(=O)N[C@H](C(=O)N1CCC[C@H]1c1nc(-c2ccc(-c3csc4c(Br)csc34)cc2)c[nH]1)C(C)C [Compound A155, [(S)-1-((S)-2-{4-[4-(6-bromo-thieno[3,2-b]thiophen-3-yl)-phenyl]-1H-imidazol-2-yl}-pyrrolidine-1-carbonyl)-2-methyl-propyl]-carbamic acid methyl ester]	10 to 100	10000 to 75000	–	–	–	–	–	–	–	–	–	–	–
COC(=O)NC(C(=O)N1CCCC1c1ncc(-c2cc3sc(-c4ccc5[nH]c(C6CCCN6C(=O)C(NC(=O)OC)C(C)C)nc5c4)cc3s2)[nH]1)C(C)C (stereo in doubt) [Compound A176, ((S)-1-{(S)-2-[5-(5-{(S)-2-[1-((S)-2-methoxycarbonylamino-3-methyl-butyryl)-pyrrolidin-2-yl]-3H-benzoimidazol-5-yl}-thieno[3,2-b]thiophen-2-yl)-1H-imidazol-2-yl]-pyrrolidine-1-carbonyl}-2-methyl-propyl)-carbamic acid methyl ester]	–	–	< 0.1	0.1 to 1	0.1 to 1	0.1 to 1	0.1 to 1	10000 to 75000	–	–	–	–	–
